Measurements taken from patent US20230002359A1, “PESTICIDALLY ACTIVE FUSED BICYCLIC HETEROAROMATIC COMPOUNDS” (priority 2019, published 2023).
Where two headings read alike, the source gives them in different places.

Experiments:
Format in all cases: in vivo
[1] = system: Chilo suppressalis (Striped Rice Stemborer); assay: Example B3: Chilo suppressalis (striped rice stemborer), artificial diet, L2 larvae; conditions: 144 h, read-out: control in at least one of the three categories (mortality, anti-feedant effect, or growth inhibition)
Description: 24-well microtiter plates with artificial diet were treated with aqueous test solutions prepared from 10′000 ppm DMSO stock solutions by pipetting. After drying, the plates were infested with L2 larvae (6-8 per well). The samples were assessed for mortality, anti-feeding effect, and growth inhibition in comparison to untreated samples 6 days after infestation. Control of Chilo suppressalis by a test sample is given when at least one of the categories mortality, anti-feedant effect, and growth inhibition is higher than the untreated sample.

[2] = system: Diabrotica Balteata (Corn Root Worm); assay: Example B1: Diabrotica balteata (corn root worm), maize sprouts sprayed, L2 larvae; conditions: 96 h, read-out: control in at least one of the two categories (mortality or growth inhibition)
Description: Maize sprouts placed onto an agar layer in 24-well microtiter plates were treated with aqueous test solutions prepared from 10′000 ppm DMSO stock solutions by spraying. After drying, the plates were infested with L2 larvae (6 to 10 per well). The samples were assessed for mortality and growth inhibition in comparison to untreated samples 4 days after infestation.

[3] = system: Plutella xylostella (Diamond Back Moth); assay: Example B4: Plutella xylostella (diamond back moth), artificial diet, eggs, 24-well; conditions: 192 h, read-out: control in at least one of the two categories (mortality or growth inhibition)
Description: 24-well microtiter plates with artificial diet were treated with aqueous test solutions prepared from 10′000 ppm DMSO stock solutions by pipetting. After drying, Plutella eggs were pipetted through a plastic stencil onto a gel blotting paper and the plate was closed with it. The samples were assessed for mortality and growth inhibition in comparison to untreated samples 8 days after infestation.

[4] = application rate of 200 ppm, 6 days after infestation, L2 larvae
[5] = application rate of 200 ppm, 4 days after infestation, L2 larvae
[6] = application rate of 200 ppm, 8 days after infestation, eggs

CC(c1nccnc1-c1ncccn1)N(CC1CC1)c1ncnc2c(C(F)(F)F)cc(Br)cc12 (stereo not shown) [P.80, 6-bromo-N-(cyclopropylmethyl)-N-[1-(3-pyrimidin-2-ylpyrazin-2-yl)ethyl]-8-(trifluoromethyl)quinazolin-4-amine]
percent control (mortality, anti-feedant effect or growth inhibition) at 200 ppm [1, 4]: ≥ 80% | percent control (mortality or growth inhibition) at 200 ppm [2, 5]: ≥ 80% | percent control (mortality or growth inhibition) at 200 ppm [3, 6]: ≥ 80%

CC(Nc1ncnc2c(Cl)cc(C(F)(F)F)cc12)c1ncnn1-c1ccc(Br)cn1 (stereo not shown) [P.267, N-[1-[2-(5-bromo-2-pyridyl)-1,2,4-triazol-3-yl]ethyl]-8-chloro-6-(trifluoromethyl)quinazolin-4-amine]
percent control (mortality, anti-feedant effect or growth inhibition) at 200 ppm [1, 4]: ≥ 80%

C[C@@H](c1ncnn1-c1ccc(C#N)cn1)N(C(=O)Oc1ccccc1)c1ncnc2c(C(F)(F)F)cc(C(F)(F)F)cc12 [P.226, phenyl N-[6,8-bis(trifluoromethyl)quina-zolin-4-yl]-N-[(1S)-1-[2-(5-cyano-2-pyridyl)-1,2,4-triazol-3-yl]ethyl]carbamate]
percent control (mortality, anti-feedant effect or growth inhibition) at 200 ppm [1]: ≥ 80% | percent control (mortality or growth inhibition) at 200 ppm [2]: ≥ 80% | percent control (mortality or growth inhibition) at 200 ppm [3]: ≥ 80%

COc1ccc(CN(c2ncnc3c(C(F)(F)F)cc(C(F)(F)F)cc23)C(C)c2nccnc2-c2ncccn2)cc1 (stereo not shown) [P.225, N-[(4-methoxyphenyl)methyl]-N-[1-(3-pyrimidin-2-ylpyrazin-2-yl)ethyl]-6,8-bis(trifluoromethyl)quina-zolin-4-amine]
percent control (mortality, anti-feedant effect or growth inhibition) at 200 ppm [1, 4]: ≥ 80% | percent control (mortality or growth inhibition) at 200 ppm [2, 5]: ≥ 80% | percent control (mortality or growth inhibition) at 200 ppm [3, 6]: ≥ 80%

C[C@@H](c1ncnn1-c1ncccn1)N(C)c1c(Cl)cnc2c(C(F)(F)F)cc(C(F)(F)F)cc12 [P.181, 3-chloro-N-methyl-N-[(1S)-1-(2-pyrimidin-2-yl-1,2,4-triazol-3-yl)ethyl]-6,8-bis(trifluoromethyl)quinolin-4-amine]
percent control (mortality or growth inhibition) at 200 ppm [2, 5]: ≥ 80% | percent control (mortality or growth inhibition) at 200 ppm [3, 6]: ≥ 80%

CC(Nc1ncnc2c(C(F)(F)F)cc(C(F)(F)F)cc12)c1ncnn1-c1ccc(OC(F)F)cn1 (stereo not shown) [P.193, N-[1-[2-[5-(difluoromethoxy)-2-pyridyl]-1,2,4-triazol-3-yl]ethyl]-6,8-bis(trifluoromethyl)quina-zolin-4-amine]
percent control (mortality, anti-feedant effect or growth inhibition) at 200 ppm [1, 4]: ≥ 80% | percent control (mortality or growth inhibition) at 200 ppm [2, 5]: ≥ 80% | percent control (mortality or growth inhibition) at 200 ppm [3, 6]: ≥ 80%

CC(c1nccnc1-n1nccn1)N(C)c1ncnc2c(OC(F)F)cc(Br)cc12 (stereo not shown) [P.180, 6-bromo-8-(difluoromethoxy)-N-methyl-N-[1-[3-(triazol-2-yl)pyrazin-2-yl]ethyl]quinazolin-4-amine]
percent control (mortality, anti-feedant effect or growth inhibition) at 200 ppm [1, 4]: ≥ 80% | percent control (mortality or growth inhibition) at 200 ppm [2, 5]: ≥ 80% | percent control (mortality or growth inhibition) at 200 ppm [3, 6]: ≥ 80%

CC(c1nccnc1-c1ccc(C#N)cn1)N(CC1CC1)c1ncnc2c(Cl)cc(C(F)(F)F)cc12 (stereo not shown) [P.72, 6-[3-[1-[[8-chloro-6-(trifluoromethyl)quinazolin-4-yl]-(cyclopropylmethyl)amino]ethyl]pyrazin-2-yl]pyridine-3-carbonitrile]
percent control (mortality, anti-feedant effect or growth inhibition) at 200 ppm [1, 4]: ≥ 80% | percent control (mortality or growth inhibition) at 200 ppm [2, 5]: ≥ 80% | percent control (mortality or growth inhibition) at 200 ppm [3, 6]: ≥ 80%

CC(Nc1ncnc2c(C(F)(F)F)cc(C(F)(F)F)cc12)c1ncnn1-c1ccc(Br)cn1 (stereo not shown) [P.268, N-[1-[2-(5-bromo-2-pyridyl)-1,2,4-triazol-3-yl]ethyl]-6,8-bis(trifluoromethyl)quina-zolin-4-amine]
percent control (mortality or growth inhibition) at 200 ppm [2, 5]: ≥ 80% | percent control (mortality or growth inhibition) at 200 ppm [3, 6]: ≥ 80%

COC(=O)N(c1ncnc2c(C(F)(F)F)cc(C(F)(F)F)cc12)C(C)c1ncnn1-c1ccc(C#N)cn1 (stereo not shown) [P.167, methyl N-[6,8-bis(trifluoromethyl)quina-zolin-4-yl]-N-[1-[2-(5-cyano-2-pyridyl)-1,2,4-triazol-3-yl]ethyl]carbamate]
percent control (mortality, anti-feedant effect or growth inhibition) at 200 ppm [1]: ≥ 80% | percent control (mortality or growth inhibition) at 200 ppm [3]: ≥ 80%

CC(c1nccnc1-n1nccn1)N(CC1CC1)c1ncnc2c(Cl)cc(C(F)(F)F)cc12 (stereo not shown) [P.76, 8-chloro-N-(cyclopropylmethyl)-N-[1-[3-(triazol-2-yl)pyrazin-2-yl]ethyl]-6-(trifluoromethyl)quinazolin-4-amine]
percent control (mortality, anti-feedant effect or growth inhibition) at 200 ppm [1, 4]: ≥ 80% | percent control (mortality or growth inhibition) at 200 ppm [2, 5]: ≥ 80% | percent control (mortality or growth inhibition) at 200 ppm [3, 6]: ≥ 80%

C[C@@H](c1ncnn1-c1ccc(C#N)cn1)N(C)c1ncnc2c(C(F)(F)F)cc(C(=O)C3CC3)cc12 [P.170, 6-[5-[(1S)-1-[[6-(cyclopropanecarbonyl)-8-(trifluoromethyl)quinazolin-4-yl]-methyl-amino]ethyl]-1,2,4-triazol-1-yl]pyridine-3-carbonitrile]
percent control (mortality, anti-feedant effect or growth inhibition) at 200 ppm [1, 4]: ≥ 80% | percent control (mortality or growth inhibition) at 200 ppm [3, 6]: ≥ 80%

CC(Nc1ncnc2c(C(F)(F)F)cc(Br)cc12)c1nccnc1-c1ccc(Br)cn1 (stereo not shown) [P.198, 6-bromo-N-[1-[3-(5-bromo-2-pyridyl)pyrazin-2-yl]ethyl]-8-(trifluoromethyl)quinazolin-4-amine]
percent control (mortality, anti-feedant effect or growth inhibition) at 200 ppm [1, 4]: ≥ 80% | percent control (mortality or growth inhibition) at 200 ppm [3, 6]: ≥ 80%

CC(c1nccnc1-c1ccc(Br)cn1)N(C)c1ncnc2c(C(F)(F)F)cc(Br)cc12 (stereo not shown) [P.196, 6-bromo-N-[1-[3-(5-bromo-2-pyridyl)pyrazin-2-yl]ethyl]-N-methyl-8-(trifluoromethyl)quinazolin-4-amine]
percent control (mortality or growth inhibition) at 200 ppm [2, 5]: ≥ 80%

CC(Nc1nccc2c(C(F)(F)F)cc(C(F)(F)F)cc12)c1ncnn1-c1ccc(C#N)cn1 (stereo not shown) [P.210, 6-[5-[1-[[5,7-bis(trifluoromethyl)-1-isoquinolyl]amino]ethyl]-1,2,4-triazol-1-yl]pyridine-3-carbonitrile]
percent control (mortality or growth inhibition) at 200 ppm [2, 5]: ≥ 80% | percent control (mortality or growth inhibition) at 200 ppm [3, 6]: ≥ 80%

CC(Nc1ncnc2c(C(F)(F)F)cc(C(F)(F)F)cc12)c1ncnn1-c1ccc(F)cn1 (stereo not shown) [P.233, N-[1-[2-(5-fluoro-2-pyridyl)-1,2,4-triazol-3-yl]ethyl]-6,8-bis(trifluoromethyl)quina-zolin-4-amine]
percent control (mortality or growth inhibition) at 200 ppm [3, 6]: ≥ 80%

CC(Nc1ncnc2c(Br)cc(Cl)cc12)c1ncnn1-c1ccc(C#N)cn1 (stereo not shown) [P.158, 6-[5-[1-[(8-bromo-6-chloro-quinazolin-4-yl)amino]ethyl]-1,2,4-triazol-1-yl]pyridine-3-carbonitrile]
percent control (mortality, anti-feedant effect or growth inhibition) at 200 ppm [1, 4]: ≥ 80% | percent control (mortality or growth inhibition) at 200 ppm [3, 6]: ≥ 80%

CC(Nc1ncnc2c(Br)cc(C(F)(F)F)cc12)c1ncnn1-c1ccc(F)cn1 (stereo not shown) [P.186, 8-bromo-N-[1-[2-(5-fluoro-2-pyridyl)-1,2,4-triazol-3-yl]ethyl]-6-(trifluoromethyl)quinazolin-4-amine]
percent control (mortality, anti-feedant effect or growth inhibition) at 200 ppm [1, 4]: ≥ 80% | percent control (mortality or growth inhibition) at 200 ppm [2, 5]: ≥ 80% | percent control (mortality or growth inhibition) at 200 ppm [3, 6]: ≥ 80%

CC(Nc1ncnc2c(C(F)(F)F)cc(C(F)(F)F)cc12)c1ncnn1-c1ncc(Br)cn1 (stereo not shown) [P.92, N-[1-[2-(5-bromopyrimidin-2-yl)-1,2,4-triazol-3-yl]ethyl]-6,8-bis(trifluoromethyl)quina-zolin-4-amine]
percent control (mortality, anti-feedant effect or growth inhibition) at 200 ppm [1, 4]: ≥ 80% | percent control (mortality or growth inhibition) at 200 ppm [2, 5]: ≥ 80% | percent control (mortality or growth inhibition) at 200 ppm [3, 6]: ≥ 80%

CC(c1nccnc1-n1nccn1)N(CC1CC1)c1ncnc2c(C(F)(F)F)cc(Cl)cc12 (stereo not shown) [P.77, 6-chloro-N-(cyclopropylmethyl)-N-[1-[3-(triazol-2-yl)pyrazin-2-yl]ethyl]-8-(trifluoromethyl)quinazolin-4-amine]
percent control (mortality, anti-feedant effect or growth inhibition) at 200 ppm [1, 4]: ≥ 80% | percent control (mortality or growth inhibition) at 200 ppm [2, 5]: ≥ 80% | percent control (mortality or growth inhibition) at 200 ppm [3, 6]: ≥ 80%

CC(Nc1nc(Cl)nc2c(Cl)cc(C(F)(F)F)cc12)c1ncnn1-c1ncccn1 (stereo not shown) [P.48, 2,8-dichloro-N-[1-(2-pyrimidin-2-yl-1,2,4-triazol-3-yl)ethyl]-6-(trifluoromethyl)quinazolin-4-amine]
percent control (mortality, anti-feedant effect or growth inhibition) at 200 ppm [1, 4]: ≥ 80%

CC(Nc1ccnc2c(C(F)(F)F)cc(C(F)(F)F)cc12)c1nccnc1-c1ncccn1 (stereo not shown) [P.85, N-[1-(3-pyrimidin-2-ylpyrazin-2-yl)ethyl]-6,8-bis(trifluoromethyl)quino-lin-4-amine]
percent control (mortality, anti-feedant effect or growth inhibition) at 200 ppm [1, 4]: ≥ 80% | percent control (mortality or growth inhibition) at 200 ppm [2, 5]: ≥ 80% | percent control (mortality or growth inhibition) at 200 ppm [3, 6]: ≥ 80%

CC(Nc1nc(Cl)nc2c(Br)cc(C(F)(F)F)cc12)c1ncnn1-c1ncccn1 (stereo not shown) [P.51, 8-bromo-2-chloro-N-[1-(2-pyrimidin-2-yl-1,2,4-triazol-3-yl)ethyl]-6-(trifluoromethyl)quinazolin-4-amine]
percent control (mortality, anti-feedant effect or growth inhibition) at 200 ppm [1, 4]: ≥ 80%
